According to US20220281930A1, “COMPOSITIONS AND METHODS FOR THE TREATMENT OF PATHOLOGICAL PAIN AND ITCH” (DUKE UNIVERSITY, priority 2019, published 2022):

Legend:
KCC2 = experiment: Composite score from primary and secondary screening; type: cell-based, mouse; details: Natural Compounds
Experimental: The primary screen encompassed three levels of LUC measurements. The first level of screening yielded a total of 137 compounds with cut-off RLU>125% LUC activity. These 137 compounds were subject to second round of screening, which was carried out in duplicate independent assays to yield the top 103 compounds sorted for highest RLU. The 103 compounds were then subjected to a third round of screening carried out in duplicate independent assays to yield the top 40 compounds which were again ranked. The best 22 of these 40 compounds (ranked for highest RLU activity) were subjected to secondary screening: Cultured neurons were treated with the 22 compounds; RT-qPCR and Clomeleon imaging methodologies (Yeo et al., 2009, J Neurosci 29:14652-14662) were used to determine effects of compounds on KCC2 mRNA expression and [Cl—]i, respectively. Each compound was ranked based on composite scores from primary and secondary screening.
To identify KCC2 gene expression enhancing compounds, cultured primary cortical neurons were cultured from KCC2-luciferase(LUC)-knockin (KCC2-LUCki) mice (Liedtke et al., 2013, Small 9:1066-1075; Yeo et al., 2013, Proc Natl Acad Sci USA 110:4315-4320) and used LUC metrics as readout for activity of the proximal KCC2 promoter (2.5 kB (Yeo et al., 2009, J Neurosci 29:14652-14662)), which drives LUC in this mouse transgenic line. A Z′ factor of 0.94 was obtained. This strategy will not select for long-range enhancers of KCC2 gene expression that act outside the 2.5 kB core KCC2 promoter. 1057 compounds, contained in two NCI libraries (FIG. 1), related to inhibition of growth of malignantly transformed cells were screened. Iterative screening followed by measurements of KCC2 mRNA (RT-qPCR) and intracellular chloride ([Cl—]i), using clomeleon chloride indicator protein (Kuner and Augustine, 2000, Neuron 27:447-459; Yeo et al., 2009, J Neurosci 29:14652-14662), led to decreasing numbers of confirmed and re-confirmed hits, and 4 “winner” compounds were selected (FIG. 1 and Table 3).

CDKs = experiment: DARTS assay, CDKs; type: binding, rat; details: 20 μM KP
Experimental: Cultured primary rat cortical neurons were treated with either vehicle DMSO (0.1%) or 20 μM KP for 30 h. Cells were lysed in ice-cold lysis buffer (Tris.Cl pH8 50 mM, NaCl 150 mM, NP40 0.5%, N-dodecyl-b-D-maltoside 0.5%, Phosphatase Inhibitor (Pierce #88667) and Protease Inhibitor (Roche #11836153001)). Protein concentrations were determined by Bio-Rad DC Protein Assay kit using bovine albumin as standard. All steps were performed on ice. Samples were warmed to room temperature and digested with pronase (final concentration 1:500) for 30 min at 30° C. Digestion was halted using 0.5M EDTA. Only proteins not bound to KP were digested. The protein mixture was dialyzed using dialysis cassettes (Thermo Fisher 66203, 2K MWCO) and analyzed by LC-MS/MS method to identify proteins that are bound to KP, the latter step carried out in the Duke Proteomics Core Laboratory.
A drug affinity responsive target stability (DARTS) assay (Lomenick, et al., 2009, Proc Natl Acad Sci USA 106:21984-21989) was used to study direct binding of KP to GSK3ß (FIG. 8A) in primary cortical neurons. The findings were consistent with previous reports in cell lines (Knockaert, et al., 2002, The Journal of biological chemistry 277:25493-25501) yet novel in primary neurons. […]

δ-cat = experiment: Nuclear transfer of transfected human δ-cat in N2a cells; type: cell-based, mouse
Excerpt: Plasmid containing human δ-catenin (CTNND2, NM_001288717) open reading frame was obtained from GeneCopeia (EX-A4285-M02) and cloned into pCMV-ENTER vector (Origene PS100001). Site-directed mutagenesis using Phusion DNA Polymerase enzyme (Thermofisher F549L) in conjunction with complementary primers bearing the specific mutation were used to generate the S276A […] mutation S276A. PCR was followed by Dpn1 enzyme digestion to remove parental plasmid DNA. All constructs were verified by sequencing. pCS-CMV-tdTomato plasmid was obtained from Addgene (cat. #30530).
To investigate the relevance of δ-cat residue S276, N2a neural cells were studied because these cells transfect at higher efficiency than primary cortical neurons. In our cultures, N2a cells expressed neuronal ßIII-tubulin in elongated processes as determined by immune-labeling as an indicator of their neuronal differentiation. […] This increase in nuclear transfer was very similar to the trafficking we recorded in primary cortical neurons, thus validating the cell line. […] Of note, there was no increase of nuclear transfer of δ-cat(S276A) upon KP treatment (FIG. 8C and FIG. 8D).

Compound: O=C1Cc2c([nH]c3ccc(Br)cc23)-c2ccccc2N1 [kenpaullone, 9-bromo-7,12-dihydro-indolo [3,2-d] [1]benzazepin-6(5H)-one]
- Top 2 hits (KCC2): winner
- Total Score (KCC2; sum of the three scores): 6
- binding of KP to CDKs (CDKs): not identified
- nuclear transfer of δ-cat (δ-cat; cells transfected with δ-cat(S276A), KP treatment): had no effect
- nuclear transfer of δ-cat (δ-cat; cells transfected with δ-cat(WT), KP vs vehicle): significantly enhances
